Where “and” joins values, the source holds several entries; their conditions need not be identical. Identical values can stand only once.
Tested on: Male beagle dogs
Test: Serum total cholesterol in beagle dogs (serum lipid measurements)
Format: in vivo
Conditions: for SERUM TOTAL CHOLESTEROL / TOTAL SERUM CHOLESTEROL: n = 6; for decrease in serum total cholesterol concentration: compared to vehicle; for decrease in serum total cholesterol: after four weeks, vs pretreatment
Procedure: Male beagle dogs (9-10 kg) obtained from Marshall farms were fed a normal chow diet once a day for a two hour interval and given water ad libitum. Prior to initiating treatment, the dogs were weighed and blood samples were drawn from the cephalic vein of each dog following an overnight fast to evaluate pretreatment serum total cholesterol levels at the start of the study. […] All doses were administered in gelatin capsules per os to each dog between 9:00-9:30 a.m. prior to feeding. All animals were fed between 9:30-10:00 a.m. and were allowed two hours to eat, at which time any remaining food was removed. […] Animals were dosed daily for three weeks and blood samples were taken at the end of each week after an overnight fast for comparison with pretreatment serum total cholesterol levels. Three consecutive 24 hour fecal samples were collected for each group during the last 72 hours of each week and used to measure the concentration of fecal biles acids excreted during that time period.
Blood was collected from the cephalic vein of each dog into serum separator tubes. The blood was centrifuged at 900×g for 20 minutes at room temperature and the serum decanted. All analyses were performed on a Cobas Mira Clinical Analyzer System (Roche Diagnostic Systems, Branchburg, N.J.) using Roche Diagnostic reagents for enzymatic determinations of serum cholesterol. Commercial calibrator and quality control materials were analyzed with each run to verify assay accuracy and precision. A two-tailed, paired Students t-test was used to determine the statistical significance of changes in serum total cholesterol in treated dogs compared to pretreatment values. A one-way analysis of variance (“ANOVA”) was used to compare each pair of treatment groups to determine the statistical significance of changes in serum total cholesterol.
Beagle dogs also were administered pravastatin to evaluate the monotherapeutic effect of pravastatin on serum total cholesterol.
Male beagle dogs (9-10 kg) obtained from Marshall farms were fed once a day for two hours and given water ad libitum. Prior to initiating treatment, blood samples were drawn from the cephalic vein of each dog to evaluate pretreatment total serum cholesterol levels at the start of the study.
For the dose ranging study, the dogs were assigned to one of five groups based on mean body weights and serum total cholesterol levels. Each group received one of the following dosages: (1) vehicle (empty capsule, afternoon dosing), (2) 3.0 mg/kg/day pravastatin (afternoon dosing), (3) 10 mg/kg/day pravastatin (afternoon dosing), (4) 30 mg/kg/day pravastatin (afternoon dosing), and (5) 10 mg/kg/day pravastatin (morning dosing). One capsule containing pravastatin was administered per os to each dog between 9:00-9:30 a.m. prior to feeding for the 10 mg/kg/day morning dosing group and between 2:30-3:00 p.m. for the afternoon dosing groups. All animals were fed between 9:30-10:00 a.m. and were allowed two hours to eat, at which time any remaining food was removed. […] Animals were dosed daily for four weeks and blood samples were taken at the end of each week after an overnight fast for comparison with pretreatment serum total cholesterol levels.
Following this initial four week dose-ranging study, dogs from the two groups receiving 10 mg/kg/day pravastatin (a.m. and p.m. dosing groups) were randomized into two new treatment groups based on serum total cholesterol levels to initiate the combination treatment study. […] Dosing continued in this manner for an additional four weeks (Weeks 5-8) with blood and 48-hour fecal samples collected at the end of each week for serum lipid measurements and fecal bile acid determinations, respectively.

SMILES: CC[C@H](C)C(=O)O[C@H]1C[C@H](O)C=C2C=C[C@H](C)[C@H](CC[C@@H](O)C[C@@H](O)CC(=O)O)[C@H]21 [pravastatin, Pravastatin]
- % change in serum total cholesterol compared to the pretreatment value of each group (pravastatin 0.25 mg/kg/day, Week 1): (+2) %
- SERUM TOTAL CHOLESTEROL (pravastatin 0.25 mg/kg/day, Week 1, mean ± SEM): 157 ± 10 mg/dL
- % change in serum total cholesterol compared to the pretreatment value of each group (pravastatin 0.25 mg/kg/day, Week 2): (+3) %
- SERUM TOTAL CHOLESTEROL (pravastatin 0.25 mg/kg/day, Week 2, mean ± SEM): 159 ± 12 mg/dL
- % change in serum total cholesterol compared to the pretreatment value of each group (pravastatin 0.25 mg/kg/day, Week 3): (0) %
- SERUM TOTAL CHOLESTEROL (pravastatin 0.25 mg/kg/day, Week 3, mean ± SEM): 154 ± 13 mg/dL
- decrease in serum total cholesterol concentration (pravastatin 0.25 mg/kg/day, one week of treatment): 2%
- decrease in serum total cholesterol concentration (pravastatin 0.25 mg/kg/day, three weeks of treatment): 0%
- % change in serum total cholesterol compared to the pretreatment value of each group (pravastatin 1.0 mg/kg/day, Week 1): (−1) %
- SERUM TOTAL CHOLESTEROL (pravastatin 1.0 mg/kg/day, Week 1, mean ± SEM): 153 ± 11 mg/dL
- % change in serum total cholesterol compared to the pretreatment value of each group (pravastatin 1.0 mg/kg/day, Week 2): (−4) %
- SERUM TOTAL CHOLESTEROL (pravastatin 1.0 mg/kg/day, Week 2, mean ± SEM): 149 ± 11^2 mg/dL
- % change in serum total cholesterol compared to the pretreatment value of each group (pravastatin 1.0 mg/kg/day, Week 3): (−8) %
- SERUM TOTAL CHOLESTEROL (pravastatin 1.0 mg/kg/day, Week 3, mean ± SEM): 143 ± 10^2 mg/dL
- decrease in serum total cholesterol concentration (pravastatin 1.0 mg/kg/day, one week of treatment): 1%
- decrease in serum total cholesterol concentration (pravastatin 1.0 mg/kg/day, three weeks of treatment): 8%
- % change in serum total cholesterol compared to the pretreatment value of each group (pravastatin 3.0 mg/kg/day pm dosing, Week 1): (−1) %
- TOTAL SERUM CHOLESTEROL (pravastatin 3.0 mg/kg/day pm dosing, Week 1, mean ± SEM): 157 ± 16 mg/dL
- % change in serum total cholesterol compared to the pretreatment value of each group (pravastatin 3.0 mg/kg/day pm dosing, Week 2): (−16) %
- TOTAL SERUM CHOLESTEROL (pravastatin 3.0 mg/kg/day pm dosing, Week 2, mean ± SEM): 133 ± 11^3 mg/dL
- % change in serum total cholesterol compared to the pretreatment value of each group (pravastatin 3.0 mg/kg/day pm dosing, Week 3): (−11) %
- TOTAL SERUM CHOLESTEROL (pravastatin 3.0 mg/kg/day pm dosing, Week 3, mean ± SEM): 140 ± 12^3 mg/dL
- % change in serum total cholesterol compared to the pretreatment value of each group (pravastatin 3.0 mg/kg/day pm dosing, Week 4): (−16) %
- TOTAL SERUM CHOLESTEROL (pravastatin 3.0 mg/kg/day pm dosing, Week 4, mean ± SEM): 132 ± 10^3 mg/dL
- lowering of serum total cholesterol (pravastatin 3 mg/kg/day, four week dose ranging study): 16%
- % change in serum total cholesterol compared to the pretreatment value of each group (pravastatin 4.0 mg/kg/day, Week 1): (−6) %
- SERUM TOTAL CHOLESTEROL (pravastatin 4.0 mg/kg/day, Week 1, mean ± SEM): 148 ± 10^2 mg/dL
- % change in serum total cholesterol compared to the pretreatment value of each group (pravastatin 4.0 mg/kg/day, Week 2): (−7) %
- SERUM TOTAL CHOLESTEROL (pravastatin 4.0 mg/kg/day, Week 2, mean ± SEM): 146 ± 8 mg/dL
- % change in serum total cholesterol compared to the pretreatment value of each group (pravastatin 4.0 mg/kg/day, Week 3): (−11) %
- SERUM TOTAL CHOLESTEROL (pravastatin 4.0 mg/kg/day, Week 3, mean ± SEM): 139 ± 9^2 mg/dL
- decrease in serum total cholesterol concentration (pravastatin 4.0 mg/kg/day, one week of treatment): 6%
- decrease in serum total cholesterol concentration (pravastatin 4.0 mg/kg/day, three weeks of treatment): 11%
- decrease in serum total cholesterol (pravastatin 10 mg/kg/day a.m. dosing): 16%
- % change in serum total cholesterol compared to the pretreatment value of each group (pravastatin 10.0 mg/kg/day am dosing, Week 1): (+6) %
- TOTAL SERUM CHOLESTEROL (pravastatin 10.0 mg/kg/day am dosing, Week 1, mean ± SEM): 164 ± 12 mg/dL
- % change in serum total cholesterol compared to the pretreatment value of each group (pravastatin 10.0 mg/kg/day am dosing, Week 2): (−13) %
- TOTAL SERUM CHOLESTEROL (pravastatin 10.0 mg/kg/day am dosing, Week 2, mean ± SEM): 135 ± 15^3 mg/dL
- % change in serum total cholesterol compared to the pretreatment value of each group (pravastatin 10.0 mg/kg/day am dosing, Week 3): (−15) %
- TOTAL SERUM CHOLESTEROL (pravastatin 10.0 mg/kg/day am dosing, Week 3, mean ± SEM): 131 ± 10^3 mg/dL
- % change in serum total cholesterol compared to the pretreatment value of each group (pravastatin 10.0 mg/kg/day am dosing, Week 4): (−16) %
- TOTAL SERUM CHOLESTEROL (pravastatin 10.0 mg/kg/day am dosing, Week 4, mean ± SEM): 130 ±7 mg/dL and 130 ± 7^3 mg/dL
- decrease in serum total cholesterol (pravastatin 10 mg/kg/day p.m. dosing): 21%
- % change in serum total cholesterol compared to the pretreatment value of each group (pravastatin 10.0 mg/kg/day pm dosing, Week 1): (−8) %
- TOTAL SERUM CHOLESTEROL (pravastatin 10.0 mg/kg/day pm dosing, Week 1, mean ± SEM): 146 ± 10 mg/dL
- % change in serum total cholesterol compared to the pretreatment value of each group (pravastatin 10.0 mg/kg/day pm dosing, Week 2): (−19) %
- TOTAL SERUM CHOLESTEROL (pravastatin 10.0 mg/kg/day pm dosing, Week 2, mean ± SEM): 129 ± 10^3 mg/dL
- % change in serum total cholesterol compared to the pretreatment value of each group (pravastatin 10.0 mg/kg/day pm dosing, Week 3): (−19) %
